Test results published in EP0987275B1, “Molecules that home to a selected organ or tissue in vivo” (LA JOLLA CANCER RESEARCH FOUNDATION, priority 1995, dated 2008).
Where no end group is shown, it is not given here.

Legend:
brain = experiment: In vivo panning of phage peptide display libraries, brain as the selected organ (kidney control); parameters: species or system mice; conditions: phage recovered from brain; for (% PHAGE): % of the 73 clones sequenced; for # PHAGE DISPLAYING SAME A.A. SEQUENCE: second and third rounds of in vivo panning, 73 cloned phage sequenced
Protocol: Phage display libraries were constructed using the fuse 5 vector as described by Koivunen et al. (supra, 1995; see, also, Koivunen et al. Meth. Enzymol. 245:346-369 (1994b), which is incorporated herein by reference). Six libraries encoding peptides designated CX5C (SEQ ID NO: 36), CX6C (SEQ ID NO: 37), CX7C (SEQ ID NO: 38), CX9 (SEQ ID NO: 39), X2CX14CX2 (SEQ ID NO: 40) and X2CX18 (SEQ ID NO: 41) were prepared, where "C" indicates cysteine and "XN" indicates the given number of individually selected amino acids. These libraries can display cyclic peptides when at least two cysteine residues are present in the peptide.
Oligonucleotides were constructed such that "C" was encoded by the codon TGT and "XN" was encoded by NNK, where "N" is equal molar mixtures of A, C, G and T, and where "K" is equal molar mixtures of G and T. Thus, the peptide represented by CX5C (SEQ ID NO: 36) can be represented by an oligonucleotide having the sequence TGT(NNK)5TGT (SEQ ID NO: 42). Oligonucleotides were made double stranded by 3 cycles of PCR amplification, purified and ligated to the nucleic acid encoding the gene III protein in the fuse 5 vector such that, upon expression, the peptide is present as a fusion protein at the N-terminus of the gene III protein.
The vectors were transfected by electroporation into MC1061 cells. Bacteria were cultured for 24 hr in the presence of 20 µg/ml tetracycline, then phage were collected from the supernatant by precipitation twice using polyethylene glycol. Each library contained about 5 x 10^9 to 5 x 10^14 transducing units (TU; individual recombinant phage).
(§1) A mixture of phage libraries containing 1 x 10^14 TU was diluted in 200 µl DMEM and injected into the tail vein of anesthetized BALB\c mice (2 month old females; Jackson Laboratories; Bar Harbor ME); Avertin™ (0.015 ml/g) was used as anesthetic (see Pasqualini and Ruoslahti, supra, 1996). After 1-4 minutes, mice were snap frozen in liquid nitrogen. To recover the phage, carcasses were partially thawed at room temperature for 1 hr, organs were collected and weighed, then were ground in 1 ml DMEM-PI (DMEM containing protease inhibitors (PI); phenylmethylsulfonyl fluoride (PMSF; 1 mM), aprotinin (20 µg/ml), leupeptin (1 µg/ml)).
(§2) Organ samples were washed 3 times with ice cold DMEM-PI containing 1% bovine serum albumin (BSA), then directly incubated with 1 ml K91-kan bacteria for 1 hr. Ten ml NZY medium containing […] tetracycline (NZY/tet) was added to the bacterial culture, the mixture was incubated in a 37°C shaker for 1 hr, then 200 µl aliquots were plated in agar plates containing 40 µg/ml tetracycline (tet/agar).
(§3) Individual colonies containing phage recovered from brain or kidney were grown for 16 hr in 5 ml NZY/tet. The bacterial cultures obtained from the individual colonies were pooled and the phage were purified and re-injected into mice as described above for a second round of in vivo panning. A third round of panning also was performed. Phage DNA was purified from individual bacterial colonies obtained from the second and the third round of in vivo panning and the DNA sequences encoding the peptides expressed by selected phage were determined (see Koivunen et al., supra, 1994b).
Three rounds of in vivo panning in mice were performed. Kidney was used as a control organ. Mice were injected with two different mixtures of phage libraries. The first mixture contained libraries encoding CX9 (SEQ ID NO: 39), CX5C (SEQ ID NO: 36), CX6C (SEQ ID NO: 37) and CX7C (SEQ ID NO: 38) peptides (CX5-7/CX9 mixture; SEQ ID NOS: 36-39). The second mixture contained libraries encoding X2CX14CX2 (SEQ ID NO: 40) and X2CX18 (SEQ ID NO: 41) peptides (X2CX18/X2CX14CX2 mixture; SEQ ID NOS: 40 and 41).
The phage library mixtures were administered to mice via tail vein injection. Phage input was […] of the CX5-7/CX9 (SEQ ID NOS: 36-39) mixture or 1 x 10^14 TU of the X2CX18/X2CX14CX2 (SEQ ID NOS: 40 and 41) mixture. […]

kidney = experiment: In vivo panning of phage peptide display libraries, kidney as the selected organ (brain control); parameters: species or system mice; conditions: phage recovered from kidney; for (% PHAGE): % of the 48 clones sequenced; for # PHAGE DISPLAYING SAME A.A. SEQUENCE: 48 cloned phage sequenced
Protocol: as §1, §2, §3
The same methodology used to isolate phage expressing brain homing peptides was used to isolate phage expressing peptides that home to kidney. In these experiments, brain was used as the control organ. A mixture of the CX5C (SEQ ID NO: 36) and the CX6C (SEQ ID NO: 37) libraries was administered as described above. Homing of phage to the kidney was obtained and an approximately 3x to 7x enrichment of phage homing to kidney was observed following a second round of in vivo panning.
The amino acid sequences were determined for the inserts in 48 cloned phage that homed to kidney. The peptides expressed by these phage were represented by two predominant sequences, CLPVASC (SEQ ID NO: 21; 46% of the clones sequenced) and CGAREMC (SEQ ID NO: 22; 17% of the clones; see Table 2). In addition, the peptide CKGRSSAC (SEQ ID NO: 23) appeared three times and three other peptides were present twice each.

[1] = test system: B16B15b mouse melanoma cells; experiment: In vivo panning in mice bearing an implanted mouse melanoma tumor; parameters: species or system nude mice; conditions: phage recovered from B16B15b tumors; 89 cloned phage sequenced
Protocol: Mice bearing a melanoma were produced by implantation of B16B15b mouse melanoma cells, which produce highly vascularized tumors. B16B15b mouse melanoma cells were injected subcutaneously into the mammary fat pad of nude mice (2 months old) and tumors were allowed to grow until the diameter was about 1 cm. In vivo panning was performed as disclosed above. Approximately 1 x 10^12 transducing units of phage expressing the CX5C (SEQ ID NO: 36), CX6C (SEQ ID NO: 37) or […] library were injected, iv, and allowed to circulate for 4 min. Mice then were snap frozen in liquid nitrogen while under anesthesia, tumor tissue and brain (control organ) were removed, and phage were isolated as described above. Three rounds of in vivo panning were performed.
The amino acid sequences were determined for the inserts in 89 cloned phage recovered from the B16B15b tumors. The peptides expressed by these phage were represented by two predominant sequences, CLSGSLSC (SEQ ID NO: 55; 52% of the clones sequenced) and WGTGLC (SEQ ID NO: 52; 25% of the clones; see Table 4).

Substance: CANAQSHC (displayed on phage) [peptide from phage recovered from brain]
- (% PHAGE) (brain): 1.4%
- # PHAGE DISPLAYING SAME A.A. SEQUENCE (brain): 1

Substance: CETLPAC (displayed on phage) [peptide from phage recovered from brain]
- (% PHAGE) (brain): 1.4%
- # PHAGE DISPLAYING SAME A.A. SEQUENCE (brain): 1

Substance: CFVGHDLC (displayed on phage) [peptide from phage recovered from kidney]
- (% PHAGE) (kidney): 2.1%
- # PHAGE DISPLAYING SAME A.A. SEQUENCE (kidney): 1

Substance: CGNPSYRC (displayed on phage) [peptide from phage recovered from brain]
- (% PHAGE) (brain): 1.4%
- # PHAGE DISPLAYING SAME A.A. SEQUENCE (brain): 1

Substance: CGRSLDAC (displayed on phage) [peptide from phage recovered from brain]
- (% PHAGE) (brain): 1.4%
- # PHAGE DISPLAYING SAME A.A. SEQUENCE (brain): 1

Substance: CGVRLGC (displayed on phage) [peptide from phage recovered from brain]
- (% PHAGE) (brain): 4.1%
- # PHAGE DISPLAYING SAME A.A. SEQUENCE (brain): 3

Substance: CIEGVLGGC (cysteine pairing not given here; also: displayed on phage) [peptide from phage recovered from mouse B16B15b melanoma]
- # clones [1]: 2
- % of total phage [1]: 2%

Substance: CKDWGRIC (displayed on phage) [peptide from phage recovered from brain]
- (% PHAGE) (brain): 2.8%
- # PHAGE DISPLAYING SAME A.A. SEQUENCE (brain): 2

Substance: CKLLSGVC (displayed on phage) [peptide from phage recovered from kidney]
- (% PHAGE) (kidney): 2.1%
- # PHAGE DISPLAYING SAME A.A. SEQUENCE (kidney): 1

Substance: CKLMGEC (displayed on phage) [peptide from phage recovered from kidney]
- (% PHAGE) (kidney): 2.1%
- # PHAGE DISPLAYING SAME A.A. SEQUENCE (kidney): 1

Substance: CLDWGRIC (displayed on phage) [peptide from phage recovered from brain]
- (% PHAGE) (brain): 2.8%
- # PHAGE DISPLAYING SAME A.A. SEQUENCE (brain): 2

Substance: CLGRSSVC (displayed on phage) [peptide from phage recovered from kidney]
- (% PHAGE) (kidney): 4.2%
- # PHAGE DISPLAYING SAME A.A. SEQUENCE (kidney): 2

Substance: CLMGVHC (displayed on phage) [peptide from phage recovered from kidney]
- (% PHAGE) (kidney): 2.1%
- # PHAGE DISPLAYING SAME A.A. SEQUENCE (kidney): 1

Substance: CMGRWRLC (displayed on phage) [peptide from phage recovered from kidney]
- (% PHAGE) (kidney): 2.1%
- # PHAGE DISPLAYING SAME A.A. SEQUENCE (kidney): 1

Substance: CNSRLQLRC (displayed on phage) [peptide from phage recovered from brain]
- (% PHAGE) (brain): 5.5%
- # PHAGE DISPLAYING SAME A.A. SEQUENCE (brain): 4

Substance: CRCLNVC (displayed on phage) [peptide from phage recovered from kidney]
- (% PHAGE) (kidney): 2.1%
- # PHAGE DISPLAYING SAME A.A. SEQUENCE (kidney): 1

Substance: CRHWFDVVC (displayed on phage) [peptide from phage recovered from brain]
- (% PHAGE) (brain): 1.4%
- # PHAGE DISPLAYING SAME A.A. SEQUENCE (brain): 1

Substance: CRRFQDC (displayed on phage) [peptide from phage recovered from kidney]
- (% PHAGE) (kidney): 2.1%
- # PHAGE DISPLAYING SAME A.A. SEQUENCE (kidney): 1

Substance: CRTGTLFC (displayed on phage) [peptide from phage recovered from brain]
- (% PHAGE) (brain): 1.4%
- # PHAGE DISPLAYING SAME A.A. SEQUENCE (brain): 1

Substance: CSSTMRC (cysteine pairing not given here; also: displayed on phage) [peptide from phage recovered from mouse B16B15b melanoma]
- # clones [1]: 2
- % of total phage [1]: 2%

Substance: CSVANSC (cysteine pairing not given here; also: displayed on phage) [peptide from phage recovered from mouse B16B15b melanoma]
- # clones [1]: 3
- % of total phage [1]: 3%

Substance: CTRITESC (displayed on phage) [peptide from phage recovered from brain]
- (% PHAGE) (brain): 2.8%
- # PHAGE DISPLAYING SAME A.A. SEQUENCE (brain): 2

Substance: CTSPGGSC (displayed on phage) [peptide from phage recovered from kidney]
- (% PHAGE) (kidney): 4.2%
- # PHAGE DISPLAYING SAME A.A. SEQUENCE (kidney): 2

Substance: CVAWLNC (displayed on phage) [peptide from phage recovered from kidney]
- (% PHAGE) (kidney): 2.1%
- # PHAGE DISPLAYING SAME A.A. SEQUENCE (kidney): 1

Substance: CVGECGGC (displayed on phage) [peptide from phage recovered from kidney]
- (% PHAGE) (kidney): 2.1%
- # PHAGE DISPLAYING SAME A.A. SEQUENCE (kidney): 1

Substance: CVLRGGRC (displayed on phage) [peptide from phage recovered from brain]
- (% PHAGE) (brain): 6.8%
- # PHAGE DISPLAYING SAME A.A. SEQUENCE (brain): 5

Substance: CWARAQGC (displayed on phage) [peptide from phage recovered from kidney]
- (% PHAGE) (kidney): 4.2%
- # PHAGE DISPLAYING SAME A.A. SEQUENCE (kidney): 2

Substance: LNCDYQGTNPATSVSVPCTV (displayed on phage) [peptide from phage recovered from brain]
- (% PHAGE) (brain): 1.4%
- # PHAGE DISPLAYING SAME A.A. SEQUENCE (brain): 1

Substance: WGTGLC (also: displayed on phage) [peptide from phage recovered from mouse B16B15b melanoma]
- # clones [1]: 22
- % of total phage [1]: 25%

Substance: YPCGGEAVAGVSSVRTMCSE (displayed on phage) [peptide from phage recovered from brain]
- (% PHAGE) (brain): 1.4%
- # PHAGE DISPLAYING SAME A.A. SEQUENCE (brain): 1
